Structures are written as SMILES. Some results are limits rather than exact numbers.

The target in this test is T1, GlyT1 (Homo sapiens, UniProt P48067).
T1 construct: expressed in transfected cells
T1 sequence (P48067 1-706): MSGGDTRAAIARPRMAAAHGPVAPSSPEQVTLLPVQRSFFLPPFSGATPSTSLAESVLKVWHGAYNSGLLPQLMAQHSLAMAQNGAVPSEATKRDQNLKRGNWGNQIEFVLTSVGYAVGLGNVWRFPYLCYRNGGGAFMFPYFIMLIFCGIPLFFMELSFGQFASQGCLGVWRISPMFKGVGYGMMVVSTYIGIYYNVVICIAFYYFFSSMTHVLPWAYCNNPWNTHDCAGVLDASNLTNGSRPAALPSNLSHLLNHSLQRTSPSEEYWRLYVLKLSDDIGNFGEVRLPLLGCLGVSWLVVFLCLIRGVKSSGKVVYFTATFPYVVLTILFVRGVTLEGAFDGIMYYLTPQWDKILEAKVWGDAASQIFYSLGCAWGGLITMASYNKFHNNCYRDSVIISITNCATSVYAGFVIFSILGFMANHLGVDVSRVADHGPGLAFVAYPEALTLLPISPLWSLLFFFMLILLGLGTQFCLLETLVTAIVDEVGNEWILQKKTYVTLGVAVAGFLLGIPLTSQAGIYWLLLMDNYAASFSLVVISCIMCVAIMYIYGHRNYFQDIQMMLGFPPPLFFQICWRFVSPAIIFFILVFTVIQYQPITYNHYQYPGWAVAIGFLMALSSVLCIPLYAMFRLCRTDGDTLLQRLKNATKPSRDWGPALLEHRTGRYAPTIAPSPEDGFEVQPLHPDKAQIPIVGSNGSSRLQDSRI
Description: Glycine Transporter 1 (GlyT1) uptake assay, scintillation proximity assay of [14C]-glycine uptake. The format is cell-based. As to conditions: SPA, four parameter logistic fit, read-out: GlyT1 (pIC50) (converted). In short, it runs like this:
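IC50 values derive from four-parameter logistic curves fitted to dose-response data. Uptake of [14C]-glycine measured in scintillation proximity format.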
For the compound `CC(Oc1ccc(C#N)c(Cl)c1C(=O)N1CCc2nn(-c3ncc(F)cc3F)cc2C1)C(F)(F)F` (stereo not shown) [Example 232, 2-Chloro-3-[2-(3 5-difluoropyridin-2-yl)-2H 4H 5H 6H 7H-pyrazolo[4,3-c]pyridine-5-carbonyl]-4-[(1 1 1-trifluoropropan-2-yl)oxy]benzonitrile], the IC50 was 100 to 1000 nM.

On to `COc1c(C#N)ccc(OC(C)C(F)(F)F)c1C(=O)N1CCc2c(cnn2C2CCOCC2)C1` (stereo not shown) [Example 221, 2-Methoxy-3-[1-(oxan-4-yl)-1H 4H 5H 6H 7H-pyrazolo[4,3-c]pyridine-5-carbonyl]-4-[(1 1 1-trifluoropropan-2-yl)oxy]benzonitrile], for which the IC50 was 100 to 1000 nM.

Turning to `CCS(=O)(=O)c1ccc(O[C@@H](C)C(F)(F)F)c(C(=O)N2Cc3cn(-c4cc(C)ccc4F)nc3C2)c1` [Example 126, 5-[5-(Ethanesulfonyl)-2-{[(2S)-1 1 1-trifluoropropan-2-yl]oxy}benzoyl]-2-(2-fluoro-5-methylphenyl)-2H 4H 5H 6H-pyrrolo[3,4-c]pyrazole], the IC50 was under 100 nM.

In the case of `CC(Oc1ccc(C#N)c(Cl)c1C(=O)N1CCc2nn(C)cc2C1)C(F)(F)F` (stereo not shown) [Example 203, 2-Chloro-3-{2-methyl-2H 4H 5H 6H 7H-pyrazolo[4,3-c]pyridine-5-carbonyl}-4-[(1 1 1-trifluoropropan-2-yl)oxy]benzonitrile], the IC50 is 1000 to 10000 nM.

Regarding `COc1c(C#N)ccc(OC(C)C(F)(F)F)c1C(=O)N1CCc2nn(-c3ccc(Cl)cn3)cc2C1` (stereo not shown) [Example 229, 3-[2-(5-Chloropyridin-2-yl)-2H 4H 5H 6H 7H-pyrazolo[4,3-c]pyridine-5-carbonyl]-2-methoxy-4-[(1 1 1-trifluoropropan-2-yl)oxy]benzonitrile], the IC50 was 100 to 1000 nM.

In the case of `C[C@H](Oc1ccc(C#N)c(Cl)c1C(=O)N1Cc2cn(-c3cnn(C)c3)nc2C1)C(F)(F)F` [Example 279, 2-Chloro-3-[2-(1-methyl-1H-pyrazol-4-yl)-2H 4H 5H 6H-pyrrolo[3,4-c]pyrazole-5-carbonyl]-4-{[(2S)-1 1 1-trifluoropropan-2-yl]oxy}benzonitrile], the IC50 is under 100 nM.

With `C[C@H](Oc1ccc(C#N)cc1C(=O)N1Cc2cn(C3CCOCC3)nc2C1)C(F)(F)F` [Example 412, 3-[2-(Oxan-4-yl)-2H 4H 5H 6H-pyrrolo[3,4-c]pyrazole-5-carbonyl]-4-{[(2S)-1 1 1-trifluoropropan-2-yl]oxy}benzonitrile], the IC50 is under 100 nM.

Consider `CC(C)Oc1ccc(C#N)cc1C(=O)N1Cc2cn(-c3ccc(F)cc3)nc2C1` [Example 529, 3-[2-(4-Fluorophenyl)-2H 4H 5H 6H-pyrrolo[3,4-c]pyrazole-5-carbonyl]-4-(propan-2-yloxy)benzonitrile], for which the IC50 is 100 to 1000 nM.

Regarding `CS(=O)(=O)c1ccc(OCC2CC2)c(C(=O)N2CCc3nn(-c4ccccc4)cc3C2)c1` [Example 500, 5-[2-(Cyclopropylmethoxy)-5-methanesulfonylbenzoyl]-2-phenyl-2H 4H 5H 6H 7H-pyrazolo[4,3-c]pyridine], the IC50 is 1000 to 10000 nM.

Take `Cc1cccc(-n2cc3c(n2)CN(C(=O)c2cc(C#N)ccc2O[C@@H](C)C(F)(F)F)C3)c1F` [Example 395]: the IC50 was 100 to 1000 nM.

In the case of `Cc1cc(-n2cc3c(n2)CN(C(=O)c2cc(C#N)ccc2OCC2(C)COC2)C3)ccn1` [Example 538, 4-[(3-Methyloxetan-3-yl)methoxy]-3-[2-(2-methylpyridin-4-yl)-2H 4H 5H 6H-pyrrolo[3,4-c]pyrazole-5-carbonyl]benzonitrile], the IC50 is 1000 to 10000 nM.

On to `C[C@H](Oc1ccc(C#N)cc1C(=O)N1Cc2cnn(C3CCOCC3)c2C1)C(F)(F)F` [Example 458, 3-[1-(Oxan-4-yl)-1H 4H 5H 6H-pyrrolo[3,4-c]pyrazole-5-carbonyl]-4-{[(2S)-1 1 1-trifluoropropan-2-yl]oxy}benzonitrile], for which the IC50 is over 10000 nM.

On to `CC(C)Oc1ccc(C#N)cc1C(=O)N1Cc2cn(-c3ccc(C#N)nc3)nc2C1` [Example 466], for which the IC50 is 100 to 1000 nM.

Consider `Cc1ccccc1-n1cc2c(n1)CN(C(=O)c1cc(S(C)(=O)=O)ccc1O[C@@H](C)C(F)(F)F)C2` [Example 33, 5-(5-Methanesulfonyl-2-{[(2S)-1 1 1-trifluoropropan-2-yl]Oxy}benzoyl)-2-(2-methylphenyl)-2H 4H 5H 6H-pyrrolo[3,4-c]pyrazole], for which the IC50 is 100 to 1000 nM.

As to `COc1c(C#N)ccc(C2(F)CCC2)c1C(=O)N1Cc2cn(-c3cccc(C)n3)nc2C1` [Example 20, 4-(1-Fluorocyclobutyl)-2-methoxy-3-[2-(6-methylpyridin-2-yl)-2H 4H 5H 6H-pyrrolo[3,4-c]pyrazole-5-carbonyl]benzonitrile], the IC50 is 100 to 1000 nM.

Turning to `COc1c(C#N)ccc(OC(C)C)c1C(=O)N1Cc2cn(-c3cccc(C)n3)nc2C1` [Example 326, 2-Methoxy-3-[2-(6-methylpyridin-2-yl)-2H 4H 5H 6H-pyrrolo[3,4-c]pyrazole-5-carbonyl]-4-(propan-2-yloxy)benzonitrile], the IC50 was under 100 nM.

On to `Cc1cccc(-n2cc3c(n2)CN(C(=O)c2cc(S(=O)(=O)C(C)C)ccc2OC(C)C)C3)c1F` [Example 94, 2-(2-Fluoro-3-methylphenyl)-5-[2-(propan-2-yloxy)-5-(propane-2-sulfonyl)benzoyl]-2H 4H 5H 6H-pyrrolo[3,4-c]pyrazole], for which the IC50 is 1000 to 10000 nM.

Take `CC(C)(C)COc1ccc(S(C)(=O)=O)cc1C(=O)N1Cc2cn(-c3ccccc3)nc2C1` [Example 48, 5-[2-(2 2-Dimethylpropoxy)-5-methanesulfonylbenzoyl]-2-phenyl-2H 4H 5H 6H-pyrrolo[3,4-e]pyrazole]: the IC50 is under 100 nM.

`COc1c(C#N)ccc(N2CCC(F)(F)CC2)c1C(=O)N1Cc2cn(-c3ccc(F)cc3)nc2C1` [Example 510, 4-(4 4-Difluoropiperidin-1-yl)-3-[2-(4-fluorophenyl)-2H 4H 5H 6H-pyrrolo[3,4-c]pyrazole-5-carbonyl]-2-methoxybenzonitrile]: the IC50 is under 100 nM.

`CS(=O)(=O)c1ccc(-c2cccc(F)c2)c(C(=O)N2Cc3cn(CC4CCC4)nc3C2)c1` [Example 426, 2-(Cyclobutylmethyl)-5-[2-(3-fluorophenyl)-5-methanesulfonylbenzoyl]-2H 4H 5H 6H-pyrrolo[3,4-c]pyrazole]: the IC50 is under 100 nM.

Turning to `Cn1ncc2c1CCN(C(=O)c1cc(S(C)(=O)=O)ccc1OCC1CC1)C2` [Example 158, 5-[2-(Cyclopropylmethoxy)-5-methanesulfonylbenzoyl]-1-methyl-1H 4H 5H 6H 7H-pyrazolo[4,3-c]pyridine], the IC50 is over 10000 nM.

As for `CC(Oc1ccc(C#N)c(Cl)c1C(=O)N1Cc2cn(-c3ccc(F)cc3)nc2C(C)(C)C1)C(F)(F)F` (stereo not shown) [Example 191, 2-Chloro-3-[2-(4-fluorophenyl)-7 7-dimethyl-2H 4H 5H 6H 7H-pyrazolo[4,3-c]pyridine-5-carbonyl]-4-[(1 1 1-trifluoropropan-2-yl)oxy]benzonitrile], the IC50 is 1000 to 10000 nM.

For the compound `Cc1cc(-n2cc3c(n2)CN(C(=O)c2cc(S(C)(=O)=O)ccc2N2CCC(F)(F)CC2)C3)ccn1` [Example 101, 4-{5-[2-(4 4-Difluoropiperidin-1-yl)-5-methanesulfonylbenzoyl]-2H 4H 5H 6H-pyrrolo[3,4-c]pyrazol-2-yl}-2-methylpyridine], the IC50 is under 100 nM.

Turning to `CS(=O)(=O)c1ccc(N2CCC(F)(F)CC2)c(C(=O)N2Cc3cn(-c4ccccc4)nc3C2)c1` [Example 54, 4 4-Difluoro-1-(4-methanesulfonyl-2-{2-phenyl-2H 4H 5H 6H-pyrrolo[3,4-c]pyrazole-5-carbonyl}phenyl)piperidine], the IC50 is under 100 nM.

Regarding `CC(C)Cn1cc2c(n1)CN(C(=O)c1cc(S(C)(=O)=O)ccc1N1CCC(F)(F)CC1)C2` [Example 432, 4 4-Difluoro-1-{4-methanesulfonyl-2-[2-(2-methylpropyl)-2H 4H 5H 6H-pyrrolo[3,4-c]pyrazole-5-carbonyl]phenyl}piperidine], the IC50 is under 100 nM.

As for `CC(C)Oc1ccc(S(C)(=O)=O)cc1C(=O)N1Cc2cn(-c3cccc(C(F)(F)F)c3F)nc2C1` [Example 46, 2-[2-Fluoro-3-(trifluoromethyl)phenyl]-5-[5-methanesulfonyl-2-(propan-2-yloxy)benzoyl]-2H 4H 5H 6H-pyrrolo[3,4-c]pyrazole], the IC50 was under 100 nM.

Consider `N#Cc1ccc(C2CCCC2)c(C(=O)N2CCc3nn(-c4ccccc4)cc3C2)c1F` [Example 175, 4-Cyclopentyl-2-fluoro-3-{2-phenyl-2H 4H 5H 6H 7H-pyrazolo[4,3-c]pyridine-5-carbonyl}benzonitrile], for which the IC50 is 100 to 1000 nM.

For the compound `COc1c(C#N)ccc(OC(C)C(F)(F)F)c1C(=O)N1CCc2nn(-c3ccc(F)cc3)c(C(F)(F)F)c2C1` (stereo not shown) [Example 576, 3-[2-(4-Fluorophenyl)-3-(trifluoromethyl)-2H 4H 5H 6H 7H-pyrazolo[4,3-c]pyridine-5-carbonyl]-2-methoxy-4-[(1 1 1-trifluoropropan-2-yl)oxy]benzonitrile], the IC50 is under 100 nM.

For the origin of these results see US9708334B2, “Substituted 2,4,5,6-tetrahydropyrrolo[3,4-c]pyrazole and 4,5,6,7-tetrahydro-2H-pyrazolo[4,3-c]pyridine compounds as GlyT1 inhibitors” (DART NEUROSCIENCE (CAYMAN) LTD., priority 2014, dated 2017).
